In brackets after ≈: the same amount, converted by molar mass. Entries after “also recorded” stand apart in the source; their conditions may differ.
Columns and labels:
Assay type in all cases: physicochemical
[1] = Solubility of bendamustine in non-aqueous solvents; conditions: sonication; for solubility: organic solvent or mixture, thermodynamic from solid
Method: Bendamustine HCl was added in 5-10 mg increments to vials containing PG, PEG 200, PEG 300, PEG 400, and PEG 600, and the mixtures were sonicated. Sonication was stopped when the solution remained turbid after 8-10 minutes of sonication.
Note: The solubility might be slightly overestimated because of the generation of heat during long sonication.

[2] = Solubility of bendamustine in non-aqueous solvents in the presence of cyclodextrin; conditions: for solubility: organic solvent or mixture, thermodynamic from solid
Method: Bendamustine HCl was added to vials containing 50 mg of HPβCD per mL and PG, PEG 200, PEG 300, PEG 400, or PEG 600, and the mixtures were sonicated for about 8-10 minutes after each addition of bendamustine. The addition of bendamustine was stopped when the solutions remained turbid even after sonication for about 8-10 minutes.

[3] = Solubility of HPβCD in non-aqueous solvents; conditions: sonicated 10 minutes
Method: PG, PEG 200, PEG 300, PEG 400, and PEG 600 were added to vials containing hydroxy propyl-β-cyclodextrin (HPβCD) (50 mg) and sonicated for 10 minutes. […]

## Cn1c(CCCC(=O)O)nc2cc(N(CCCl)CCCl)ccc21 [bendamustine, 4-(5-(bis(2-chloroethyl)amino)-1-methyl-1H-benzo[d]imidazol-2-yl)butanoic acid]
[1]; PEG 200 (non-aqueous solvent), in PEG 200
  solubility: > 50 mg/mL
[1]; PEG 300 (non-aqueous solvent), in PEG 300
  solubility: > 50 mg/mL
[1]; PEG 400 (non-aqueous solvent), in PEG 400
  solubility: 25 to 30 mg/mL (≈ 69.8 to 83.7 mM)
[1]; PEG 600 (non-aqueous solvent), in PEG 600
  solubility: 8 to 10 mg/mL (≈ 22.3 to 27.9 mM)
[1]; PG (non-aqueous solvent), in PG
  solubility: > 50 mg/mL
[1]; in PEG 200
  Solubility of bendamustine: adequate
[1]; in PEG 300
  Solubility of bendamustine: adequate
[1]; in PEG 400
  Solubility of bendamustine: insufficient
[1]; in PEG 600
  Solubility of bendamustine: insufficient
[1]; in PG
  Solubility of bendamustine: adequate
[2]; PEG 200 with 50 mg/mL HPβCD, in PEG 200 with 50 mg HPβCD per mL
  solubility: 50 mg/mL
[2]; PEG 300 with 50 mg/mL HPβCD, in PEG 300 with 50 mg HPβCD per mL
  solubility: 50 mg/mL
[2]; PEG 400 with 50 mg/mL HPβCD, in PEG 400 with 50 mg HPβCD per mL
  solubility: 40 to 45 mg/mL
[2]; PEG 600 with 50 mg/mL HPβCD, in PEG 600 with 50 mg HPβCD per mL
  solubility: 25 to 30 mg/mL
[2]; PG with 50 mg/mL HPβCD, in PG with 50 mg HPβCD per mL
  solubility: 50 mg/mL
[2]; in PEG 200 with 50 mg HPβCD per mL
  Appearance of resulting liquid mixture: Clear solution
[2]; in PEG 300 with 50 mg HPβCD per mL
  Appearance of resulting liquid mixture: Clear solution
[2]; in PEG 400 with 50 mg HPβCD per mL
  Appearance of resulting liquid mixture: Clear solution
[2]; in PEG 600 with 50 mg HPβCD per mL
  Appearance of resulting liquid mixture: Clear solution
[2]; in PG with 50 mg HPβCD per mL
  Appearance of resulting liquid mixture: Clear solution

## hydroxy propyl-β-cyclodextrin [HPβCD]
[3]; 50 mg HPβCD per mL of PEG 200
  Solubility of HPβCD: Physical observation: adequate; also recorded: Clear
[3]; 50 mg HPβCD per mL of PEG 300
  Solubility of HPβCD: Physical observation: adequate; also recorded: Clear
[3]; 50 mg HPβCD per mL of PEG 400
  Solubility of HPβCD: Physical observation: insoluble; also recorded: Turbid
[3]; 50 mg HPβCD per mL of PEG 600
  Solubility of HPβCD: Physical observation: insoluble; also recorded: Turbid
[3]; 50 mg HPβCD per mL of PG
  Solubility of HPβCD: Physical observation: adequate; also recorded: Clear

Source: patent US11730815B2, “Stable liquid pharmaceutical compositions comprising bendamustine” (GOOD HEALTH, LLC, priority 2018, dated 2023)
